Test results published in ChEMBL document CHEMBL5113395, “Azetidin-2-one-based small molecules as dual hHDAC6/HDAC8 inhibitors: Investigation of their mechanism of action and impact of dual inhibition profile on cell viability” (Eur J Med Chem, 2022).

Experiments:
Assay type in all cases: toxicity, tissue-based
[1] = Cardiotoxicity in Langendorff-perfused Wistar rat heart assessed as effect on HR at 0.1 uM by ECG analysis (reference value: 252.3 +/-10.1 bpm)
[2] = Cardiotoxicity in Langendorff-perfused Wistar rat heart assessed as effect on RR time at 10 uM by ECG analysis (reference value: 239.5+/-9.2 milliseconds)
[3] = Cardiotoxicity in Langendorff-perfused Wistar rat heart assessed as effect on PQ interval time at 0.01 uM by ECG analysis (reference value: 45.4+/-3.9 milliseconds)
[4] = Cardiotoxicity in Langendorff-perfused Wistar rat heart assessed as effect on PQ interval time at 1 uM by ECG analysis (reference value: 45.4+/-3.9 milliseconds)
[5] = Cardiotoxicity in Langendorff-perfused Wistar rat heart assessed as effect on QRS interval time at 0.01 uM by ECG analysis (reference value: 13.3+/-0.6 milliseconds)
[6] = Cardiotoxicity in Langendorff-perfused Wistar rat heart assessed as effect on QRS interval time at 0.1 uM by ECG analysis (reference value: 13.3+/-0.6 milliseconds)
[7] = Cardiotoxicity in Langendorff-perfused Wistar rat heart assessed as effect on QRS interval time at 10 uM by ECG analysis (reference value: 13.3+/-0.6 milliseconds)

O=C(NO)c1ccc(CNC(=O)N2CCC(N3CC(c4ccccc4)(c4ccccc4)C3=O)CC2)cc1
Activity [1]: 258.4 bpm | Time [2]: 241.5 ms | Time [3]: 44.4 ms | Time [4]: 46.2 ms | Time [5]: 12.8 ms | Time [6]: 13.1 ms | Time [7]: 13.9 ms
